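At the GI50, growth is halved. TGI is the concentration that stops growth completely.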
What was measured:
Assay in all cases: growth of human tumour cells (NCI), 384-well format; in the data active = GI50 below about 0.43 µM; inactive = the rest
U251 glioblastoma = system: U251 glioblastoma
COLO 205 colon = system: COLO 205 colon
MDA-MB-231 breast = system: MDA-MB-231 breast
CAKI-1 renal = system: CAKI-1 renal
HT29 colon = system: HT29 colon
LOX IMVI melanoma = system: LOX IMVI melanoma
SR leukemia = system: SR leukemia
DU-145 prostate = system: DU-145 prostate
MALME-3M melanoma = system: MALME-3M melanoma
RPMI-8226 leukemia = system: RPMI-8226 leukemia
SN12C renal = system: SN12C renal
SW-620 colon = system: SW-620 colon
MDA-MB-435 melanoma = system: MDA-MB-435 melanoma
OVCAR-5 ovarian = system: OVCAR-5 ovarian
NCI-H460 NSCLC = system: NCI-H460 NSCLC
HS 578T breast = system: HS 578T breast
KM12 colon = system: KM12 colon
OVCAR-8 ovarian = system: OVCAR-8 ovarian
OVCAR-3 ovarian = system: OVCAR-3 ovarian
MCF7 breast = system: MCF7 breast
UO-31 renal = system: UO-31 renal
SK-MEL-28 melanoma = system: SK-MEL-28 melanoma
A498 renal = system: A498 renal
NCI-H322M lung = system: NCI-H322M lung
HOP-92 NSCLC = system: HOP-92 NSCLC
SNB-19 CNS = system: SNB-19 CNS
HCC-2998 colon = system: HCC-2998 colon
SK-MEL-5 melanoma = system: SK-MEL-5 melanoma
TK-10 renal = system: TK-10 renal
SF-295 CNS = system: SF-295 CNS
PC-3 prostate = system: PC-3 prostate
786-0 renal = system: 786-0 renal
IGROV1 ovarian = system: IGROV1 ovarian
A549 NSCLC = system: A549 NSCLC
HL-60(TB) leukemia = system: HL-60(TB) leukemia
HCT-15 colon = system: HCT-15 colon
EKVX NSCLC = system: EKVX NSCLC
SF-539 CNS = system: SF-539 CNS
M14 melanoma = system: M14 melanoma
MDA-MB-468 breast = system: MDA-MB-468 breast
RXF 393 renal = system: RXF 393 renal
CCRF-CEM leukemia = system: CCRF-CEM leukemia
SNB-75 CNS = system: SNB-75 CNS
MOLT-4 leukemia = system: MOLT-4 leukemia
K-562 leukemia = system: K-562 leukemia
OVCAR-4 ovarian = system: OVCAR-4 ovarian
T-47D breast = system: T-47D breast
SF-268 CNS = system: SF-268 CNS
NCI/ADR-RES ovarian = system: NCI/ADR-RES ovarian

CCc1c(C#N)c(S[C@@H](C(N)=O)c2ccccc2)nc(N(C)C)c1C#N
6.06 µM: TGI (RXF 393 renal)
inactive: GI50 (U251 glioblastoma) > 100 µM | GI50 (COLO 205 colon) > 100 µM | GI50 (MDA-MB-231 breast) 37.7 µM | GI50 (CAKI-1 renal) > 100 µM | GI50 (HT29 colon) > 100 µM | GI50 (LOX IMVI melanoma) > 100 µM | GI50 (SR leukemia) 3.05 µM | GI50 (DU-145 prostate) > 100 µM | GI50 (MALME-3M melanoma) 38.1 µM | GI50 (RPMI-8226 leukemia) > 100 µM | GI50 (SN12C renal) > 100 µM | GI50 (SW-620 colon) > 100 µM | GI50 (MDA-MB-435 melanoma) > 100 µM | GI50 (OVCAR-5 ovarian) > 100 µM | GI50 (NCI-H460 NSCLC) > 100 µM | GI50 (HS 578T breast) 4.58 µM | GI50 (KM12 colon) > 100 µM | GI50 (OVCAR-8 ovarian) 3.77 µM | GI50 (OVCAR-3 ovarian) > 100 µM | GI50 (MCF7 breast) > 100 µM | GI50 (UO-31 renal) > 100 µM | GI50 (SK-MEL-28 melanoma) > 100 µM | GI50 (A498 renal) > 100 µM | GI50 (NCI-H322M lung) > 100 µM | GI50 (HOP-92 NSCLC) 10.6 µM | GI50 (SNB-19 CNS) > 100 µM | GI50 (HCC-2998 colon) > 100 µM | GI50 (SK-MEL-5 melanoma) > 100 µM | GI50 (TK-10 renal) > 100 µM | GI50 (SF-295 CNS) 3.83 µM | GI50 (PC-3 prostate) > 100 µM | GI50 ([…]-0 renal) > 100 µM | GI50 (IGROV1 ovarian) > 100 µM | GI50 (A549 NSCLC) > 100 µM | GI50 (HL-60(TB) leukemia) > 100 µM | GI50 (HCT-15 colon) > 100 µM | GI50 (EKVX NSCLC) > 100 µM | GI50 (SF-539 CNS) > 100 µM | GI50 (M14 melanoma) > 100 µM | GI50 (MDA-MB-468 breast) > 100 µM | GI50 (RXF 393 renal) 2310 nM | GI50 (CCRF-CEM leukemia) > 100 µM | GI50 (SNB-75 CNS) 26.4 µM | GI50 (MOLT-4 leukemia) > 100 µM | GI50 (K-562 leukemia) > 100 µM | GI50 (OVCAR-4 ovarian) > 100 µM | GI50 (T-47D breast) > 100 µM | GI50 (SF-268 CNS) > 100 µM | GI50 (NCI/ADR-RES ovarian) > 100 µM
76.8 µM: TGI (SNB-75 CNS)
> 100 µM: TGI (U251 glioblastoma) | TGI (COLO 205 colon) | TGI (MDA-MB-231 breast) | TGI (CAKI-1 renal) | TGI (HT29 colon) | TGI (LOX IMVI melanoma) | TGI (SR leukemia) | TGI (DU-145 prostate) | TGI (MALME-3M melanoma) | TGI (RPMI-8226 leukemia) | TGI (SN12C renal) | TGI (SW-620 colon) | TGI (MDA-MB-435 melanoma) | TGI (OVCAR-5 ovarian) | TGI (NCI-H460 NSCLC) | TGI (HS 578T breast) | TGI (KM12 colon) | TGI (OVCAR-8 ovarian) | TGI (OVCAR-3 ovarian) | TGI (MCF7 breast) | TGI (UO-31 renal) | TGI (SK-MEL-28 melanoma) | TGI (A498 renal) | TGI (NCI-H322M lung) | TGI (HOP-92 NSCLC) | TGI (SNB-19 CNS) | TGI (HCC-2998 colon) | TGI (SK-MEL-5 melanoma) | TGI (TK-10 renal) | TGI (SF-295 CNS) | TGI (PC-3 prostate) | TGI (786-0 renal) | TGI (IGROV1 ovarian) | TGI (A549 NSCLC) | TGI (HL-60(TB) leukemia) | TGI (HCT-15 colon) | TGI (EKVX NSCLC) | TGI (SF-539 CNS) | TGI (M14 melanoma) | TGI (MDA-MB-468 breast) | TGI (CCRF-CEM leukemia) | TGI (MOLT-4 leukemia) | TGI (K-562 leukemia) | TGI (OVCAR-4 ovarian) | TGI (T-47D breast) | TGI (SF-268 CNS) | TGI (NCI/ADR-RES ovarian)
